The record followed here is patent publication US8624027B2, “Combination therapy for treating cancer and diagnostic assays for use therein” (AbbVie Inc., priority 2005, dated 2014).

Data set [1] concerns the target Bcl-XL protein (Homo sapiens, UniProt Q07817). Kind of data set: Bcl-XL binding affinity, fluorescence polarization with fluorescein-labeled BAD peptide. To be noted: Wang's equation, read-out: Target Binding Affinity Ki (Bcl-XL). Background: Polarisation of emitted light reports the rotation of a fluorescent probe.
Description: A mixture comprising 125 μL per well of assay buffer (20 mM phosphate buffer (pH 7.4), 1 mM EDTA, 50 mM NaCl, 0.05% PF-68), 6 nM of Bcl-XL protein (prepared as described in Science 1997, 275, 983-986), 1 nM fluorescein-labeled BAD peptide (prepared in-house) and the DMSO solution of the compound was shaken for 2 minutes and placed in a LJL Analyst (LJL Bio Systems, CA). A negative control (DMSO, 15 nM BAD peptide, assay buffer) and a positive control (DMSO, 1 nM BAD peptide, 6 nM Bcl-XL, assay buffer) were used to determine the range of the assay. Polarization was measured at room temperature using a continuous Fluorescein lamp (excitation 485 nm, emission 530 nm). Percentage of inhibition was determined by (1-((mP value of well-negative control)/range))×100%.
The target of data set [2] is T1, Bcl-2 protein (Homo sapiens, UniProt P10415, DELINS35-91DVEENRTEAPEGTESE, form not given).
T1 construct: fused on or other part: A short piece of the Bcl-xL (Q07817) loop replaces Bcl-2 loop residues 35-91; The C-terminal membrane anchor is absent
T1 sequence (P10415 with tags, fused parts or gaps with the stated changes): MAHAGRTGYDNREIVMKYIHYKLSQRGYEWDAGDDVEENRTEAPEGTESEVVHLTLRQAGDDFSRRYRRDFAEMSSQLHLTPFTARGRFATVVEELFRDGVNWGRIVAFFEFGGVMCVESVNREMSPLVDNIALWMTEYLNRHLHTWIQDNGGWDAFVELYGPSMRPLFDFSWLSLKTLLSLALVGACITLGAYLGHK
Kind of data set: Bcl-2 binding affinity, fluorescence polarization with fluorescein-labeled BAX peptide. Particulars: Wang's equation, read-out: Target Binding Affinity Ki (Bcl-2).

The subject of data set [3] is NCI-H146 human small cell lung carcinoma cells. Kind of data set: Cellular efficacy in human tumor cell line (MTS viability assay). Particulars: NCI-H146, 10% human serum, 48 hours. Format: cell-based. As to the method: NCI-H146 (ATCC, Manassas, Va.) human small cell lung carcinoma cells were plated 50,000 cells per well in 96-well tissue culture plates in a total volume of 100 μL tissue culture medium supplemented with 10% human serum (Invitrogen, Carlsbad, Calif.) instead of fetal bovine serum and treated with a 2-fold serial dilution of the compounds of interest from 10 μM to 0.020 μM. Each concentration was tested in duplicate at least 3 separate times. The number of viable cells following 48 hours of compound treatment was determined using the CellTiter 96® AQueous non-radioactive cell proliferation MTS assay according to manufacturer's recommendations (Promega Corp., Madison, Wis.).

The nature of data set [4]: Pharmacokinetic evaluation in rat. To be noted: male, Sprague-Dawley, plasma; for AUC / Cmax: 5 mg/kg, oral; for AUC: Table 3, read-out: Pharmacokinetic area under the plasma concentration Curve (rat) AUC; for Cmax: Table 3, read-out: Pharmacokinetic peak plasma concentration (rat) Cmax; for AUC(0-inf): single 5 mg/kg oral dose, Table 1, read-out: Pharmacokinetic area under the plasma concentration Curve (rat) AUC0-∞. Format: in vivo. As to the method: The pharmacokinetic behavior of compounds of this disclosure was determined following a single 2 mg/kg intravenous or 5 mg/kg oral dose in male Sprague-Dawley derived rats (n=3 per group). The compounds were prepared as 2 mg/mL solution in a 10% DMSO in PEG-400 formulation for both oral and intravenous administration. The 1 mL/kg intravenous dose was administered as a slow bolus (about 1-2 minutes) in the jugular vein of a rat under light ether anesthetic. The oral dose was administered by gavage. Serial blood samples were obtained from a tail vein of each rat prior 0.1 (IV only), 0.25, 0.5, 1, 1.5, 2, 3, 4, 6, 8 and 24 hours after dosing. The heparinized samples were thoroughly mixed and placed in an ice bath. Plasma was separated by centrifugation and stored frozen prior to analysis.
The compounds of interest were separated from the plasma using protein precipitation with acetonitrile. A plasma (100-200 μL, sample or spiked standard) aliquot was combined with 50 μL of internal standard (structurally related analog prepared in acetonitrile) and 1 ml acetonitrile in a 96-well polypropylene deep well plate. The plates were vortexed for 30 seconds followed by centrifugation (3500 rpm×15 minutes, 4° C.). In an automated manner, the supernatant was transferred to a clean 96-well plate. The samples were evaporated to near dryness on a Micro-Vap™ under a stream of dry nitrogen over low heat (˜37° C.). The samples were reconstituted vortexing with 0.2 mL 5% DMSO in acetonitrile. A 0.1-0.2 ml aliquot of acetonitrile: 0.1% trifluoroacetic acid (20:80, by volume) was added to each well, followed by an additional 30 second vortexing. The plates were centrifuged (3500 rpm×15 minutes, 4° C.) prior to HPLC-MS/MS analysis. Samples were analyzed simultaneously with spiked plasma standards. All samples from each study were analyzed as a single batch on the LC-MS/MS.
The compounds of interest and the internal standard were separated from each other and co-extracted contaminants on a 50×3 mm Keystone Betasil CN 5 μm column with an acetonitrile: 0.1% trifluoroacetic acid mobile phase (50:50, by volume) at a flow rate of 0.7 ml/min. Analysis was performed on a Sciex API 300™ Biomolecular Mass Analyzer using a heated nebulizer interface. Peak areas of the title compounds and internal standards were determined using the Sciex MacQuan™ software. Calibration curves were derived from peak area ratio (parent drug/internal standard) of the spiked rat plasma standards using least squares linear regression of the ratio versus the theoretical concentration. The methods were generally linear over the range of the standard curve (correlation coefficients >0.99) with an estimated quantitation limit of 0.01 μg/mL. The plasma concentration data for each animal were submitted to multi-exponential curve fitting using WinNonlin. The area under the plasma concentration-time curve from 0 to t hours (time of the last measurable plasma concentration) after dosing (AUC0-t) was calculated using the linear trapezoidal rule for the plasma concentration-time profiles. The residual area extrapolated to infinity, determined as the final measured plasma concentration (Ct) divided by the terminal elimination rate constant (β), was added to AUC0-t to produce the total area under the curve (AUC0-∞). Ki values shown in the tables below were determined using Wang's equation (Wang Z X., An Exact Mathematical Expression For Describing Competitive Binding Of Two Different Ligands To A Protein Molecule. FEBS Lett. 1995; 360:111-4)).

[5] abbreviates: Table 1, read-out: NCI-H146 Cellular Efficacy EC50.
The mark [6] stands for this setting: Table 3, read-out: NCI-H146 Cellular Efficacy H146 EC50.

Where two headings read alike, the source gives them in different places.

Chain of Bcl-XL protein (Q07817 with tags, fused parts or gaps DEL45-84): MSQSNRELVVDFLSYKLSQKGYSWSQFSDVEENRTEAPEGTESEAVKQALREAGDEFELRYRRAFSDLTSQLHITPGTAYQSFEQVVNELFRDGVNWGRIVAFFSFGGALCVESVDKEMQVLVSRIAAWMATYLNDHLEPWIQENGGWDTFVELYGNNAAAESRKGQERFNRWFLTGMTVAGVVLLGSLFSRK

For the compound `CC(C)N(C)CC[C@H](CSc1ccccc1)Nc1ccc(S(=O)(=O)NC(=O)c2ccc(N3CCN(CC4=C(c5ccc(Cl)cc5)CCCC4)CC3)cc2)cc1S(=O)(=O)C(F)(F)F` [Example 33, N-(4-(4-((2-(4-chlorophenyl)cyclohex-1-en-1-yl)methyl)piperazin-1-yl)benzoyl)-4-(((1R)-3-(isopropyl(methyl)amino)-1-((phenylsulfanyl)methyl)propyl)amino)-3-((trifluoromethyl)sulfonyl)benzenesulfonamide], in data set [1], the Ki was at most 1 nM. The Ki in data set [2] is at most 1 nM. For the same compound, the EC50 in data set [3] (setting [5]) turned out to be 37.8 nM. Moreover, in data set [3] (setting [6]), the EC50 came out at 38 nM. Besides, in data set [4], the AUC was determined as 3.01 µM·h, the Cmax turned out to be 129 nM and the AUC(0-inf) worked out at 3.01 µM·h.

`CC1(C)CCC(CN2CCN(c3ccc(C(=O)NS(=O)(=O)c4ccc(N[C@H](CCN5CCOCC5)CSc5ccccc5)c(S(=O)(=O)C(F)(F)F)c4)cc3)CC2)=C(c2ccc(Cl)cc2)C1` [Example 24, N-(4-(4-((2-(4-chlorophenyl)-4,4-dimethylcyclohex-1-en-1-yl)methyl)piperazin-1-yl)benzoyl)-4-(((1R)-3-(morpholin-4-yl)-1-((phenylsulfanyl)methyl)propyl)amino)-3-((trifluoromethyl)sulfonyl)benzenesulfonamide]: the inhibitory constant (Ki) in data set [1] and in data set [2] was at most 1 nM in each case. The EC50 in data set [3] (setting [5]) stood at 44.3 nM. The AUC(0-inf) in data set [4] was found to be 8.04 µM·h.

On to `O=C(NS(=O)(=O)c1ccc(N[C@H](CCN2CC3CC2CO3)CSc2ccccc2)c(S(=O)(=O)C(F)(F)F)c1)c1ccc(N2CCN(CC3=C(c4ccc(Cl)cc4)CCCCC3)CC2)cc1` (stereo partly drawn) [Example 12, N-(4-(4-((2-(4-chlorophenyl)cyclohept-1-en-1-yl)methyl)piperazin-1-yl)benzoyl)-4-(((1R)-3-(2-oxa-5-azabicyclo[2.2.1]hept-5-yl)-1-((phenylsulfanyl)methyl)propyl)amino)-3-((trifluoromethyl)sulfonyl)benzenesulfonamide], for which the Ki in data set [1] and in data set [2] was at most 1 nM each time. For the same compound, the concentration for a half-maximal effect (EC50) in data set [3] (setting [5]) was 27.1 nM. Also, the AUC(0-inf) in data set [4] amounted to 2.07 µM·h.

In the case of `CC(C)N(C)CC[C@H](CSc1ccccc1)Nc1ccc(S(=O)(=O)NC(=O)c2ccc(N3CCN(CC4=C(c5ccc(Cl)cc5)CC(C)(C)CC4)CC3)cc2)cc1S(=O)(=O)C(F)(F)F` [Example 14, N-(4-(4-((2-(4-chlorophenyl)-4,4-dimethylcyclohex-1-en-1-yl)methyl)piperazin-1-yl)benzoyl)-4-(((1R)-3-(isopropyl(methyl)amino)-1-((phenylsulfanyl)methyl)propyl)amino)-3-((trifluoromethyl)sulfonyl)benzenesulfonamide], the inhibition constant Ki in data set [1] and in data set [2] was at most 1 nM throughout. Further, the concentration for a half-maximal effect (EC50) in data set [3] (setting [5]) amounted to 30.9 nM. In addition, in data set [4], the AUC(0-inf) was 3.42 µM·h.

Consider `O=C(NS(=O)(=O)c1ccc(N[C@H](CCN2CCOCC2)CSc2ccccc2)c(S(=O)(=O)C(F)(F)Cl)c1)c1ccc(N2CCN(CC3=C(c4ccc(Cl)cc4)CCCC3)CC2)cc1` [Example 3, 3-((chloro(difluoro)methyl)sulfonyl)-N-(4-(4-((2-(4-chlorophenyl)-1-cyclohex-1-en-1-yl)methyl)piperazin-1-yl)benzoyl)-4-(((1R)-3-(morpholin-4-yl)-1-((phenylsulfanyl)methyl)propyl)amino)benzenesulfonamide], for which the Ki in data set [1] and in data set [2] was at most 1 nM each time. In addition, the EC50 was 28.8 nM in data set [3] (setting [5]) and 29 nM in data set [3] (setting [6]). Besides, in data set [4], the AUC was 4.13 µM·h. The Cmax in data set [4] came to 385 nM. Moreover, in data set [4], the AUC(0-inf) came to 4.13 µM·h.

Turning to `CC1(C)CCC(CN2CCN(c3ccc(C(=O)NS(=O)(=O)c4ccc(N[C@H](CCN5C[C@@H]6C[C@H]5CO6)CSc5ccccc5)c(S(=O)(=O)C(F)(F)Cl)c4)cc3)CC2)=C(c2ccc(Cl)cc2)C1` [Example 25, 3-((chloro(difluoro)methyl)sulfonyl)-N-(4-(4-((2-(4-chlorophenyl)-4,4-dimethylcyclohex-1-en-1-yl)methyl)piperazin-1-yl)benzoyl)-4-(((1R)-3-((1S,4S)-2-oxa-5-azabicyclo[2.2.1]hept-5-yl)-1-((phenylsulfanyl)methyl)propyl)amino)benzenesulfonamide], the Ki in data set [1] and in data set [2] was at most 1 nM throughout. Moreover, in data set [3] (setting [5]), the EC50 is 16.4 nM. In addition, in data set [4], the AUC(0-inf) came out at 1.67 µM·h.

As to `CC1(C)CCC(CN2CCN(c3ccc(C(=O)NS(=O)(=O)c4ccc(N[C@H](CCN5C[C@@H]6C[C@H]5CO6)CSc5ccccc5)c(S(=O)(=O)C(F)(F)F)c4)cc3)CC2)=C(c2ccc(Cl)cc2)C1` [Example 36, N-(4-(4-((2-(4-chlorophenyl)-4,4-dimethylcyclohex-1-en-1-yl)methyl)piperazin-1-yl)benzoyl)-4-(((1R)-3-((1S,4S)-2-oxa-5-azabicyclo[2.2.1]hept-5-yl)-1-((phenylsulfanyl)methyl)propyl)amino)-3-((trifluoromethyl)sulfonyl)benzenesulfonamide], the Ki in data set [1] and in data set [2] was at most 1 nM in each case. Besides, the EC50 in data set [3] (setting [5]) worked out at 24.2 nM. Besides, the AUC(0-inf) in data set [4] is 4.22 µM·h.

`CC1(C)CCC(c2ccc(Cl)cc2)=C(CN2CCN(c3ccc(C(=O)NS(=O)(=O)c4ccc(N[C@H](CCN5CC6CC5CO6)CSc5ccccc5)c(S(=O)(=O)C(F)(F)Cl)c4)cc3)CC2)C1` (stereo partly drawn) [Example 11, 3-((chloro(difluoro)methyl)sulfonyl)-N-(4-(4-((2-(4-chlorophenyl)-5,5-dimethylcyclohex-1-en-1-yl)methyl)piperazin-1-yl)benzoyl)-4-(((1R)-3-(2-oxa-5-azabicyclo[2.2.1]hept-5-yl)-1-((phenylsulfanyl)methyl)propyl)amino)benzenesulfonamide]: the inhibitory constant (Ki) in data set [1] is at most 3 nM; in data set [2] it was at most 2 nM. Moreover, the concentration for a half-maximal effect (EC50) in data set [3] (setting [5]) is 20.6 nM. Also, the AUC(0-inf) in data set [4] was 2.4 µM·h.

On to `CC(C)N(C)CC[C@H](CSc1ccccc1)Nc1ccc(S(=O)(=O)NC(=O)c2ccc(N3CCN(CC4=C(c5ccc(Cl)cc5)CCCCC4)CC3)cc2)cc1S(=O)(=O)C(F)(F)F` [Example 5, N-(4-(4-((2-(4-chlorophenyl)-1-cyclohepten-1-yl)methyl)piperazin-1-yl)benzoyl)-4-(((1R)-3-(isopropyl(methyl)amino)-1-((phenylsulfanyl)methyl)propyl)amino)-3-((trifluoromethyl)sulfonyl)benzenesulfonamide], for which the Ki in data set [1] and in data set [2] was at most 1 nM each time. In addition, the concentration for a half-maximal effect (EC50) in data set [3] (setting [5]) turned out to be 38.8 nM. Further, the AUC(0-inf) in data set [4] worked out at 2.22 µM·h.

As usually defined, the Ki is a measure of affinity in units of concentration, obtained from inhibition or displacement. For orientation: EC50 means the midpoint of the concentration-response curve.
